Measurements taken from ChEMBL document CHEMBL1128330, “Anti-human immunodeficiency virus and anti-hepatitis-B virus activities and toxicities of the enantiomers of 2'-deoxy-3'-oxa-4'-thiocytidine and their 5-fluoro analogues in vitro” (J Med Chem, 1995).

Assays:
Conditions in all cases: Homo sapiens
Jurkat [1] = assay: Cytotoxic concentration against HIV-1 infected Jurkat cell lines; format: functional
MT4 [2] = assay: Cytotoxic concentration against HIV-1 infected MT-4 cell lines; format: functional
CCRF-CEM [3] = assay: Inhibitory concentration against HIV-1 infected CEM cell lines; format: functional, cell-based
H9 [4] = assay: Inhibitory concentration against HIV-1 infected H9 cell lines; format: functional, cell-based
U-937 [5] = assay: Cytotoxic concentration against HIV-1 infected U937 cell lines; format: functional
[6] = Drug concentration which inhibits 50% of growth of cord blood mononuclear cells (CBMCs); format: functional
Jurkat [7] = assay: Inhibitory concentration against HIV-1 infected Jurkat cell lines; format: functional, cell-based
CCRF-CEM [8] = assay: Cytotoxic concentration against HIV-1 infected CEM cell lines; format: functional
MT4 [9] = assay: Inhibitory concentration against HIV-1 infected MT-4 cell lines; format: functional, cell-based
U-937 [10] = assay: Inhibitory concentration against HIV-1 infected U937 cell lines; format: functional, cell-based
H9 [11] = assay: Cytotoxic concentration against HIV-1 infected H9 cell lines; format: functional

IC50 (CCRF-CEM [3]): 0.01 µM
IC50 (H9 [4]): 0.07 µM
IC50 (Jurkat [7]): 0.01 µM
IC50 (U-937 [10]): 0.04 µM
Structure (SMILES): Cc1cn([C@H]2C[C@H](N=[N+]=[N-])[C@@H](CO)O2)c(=O)[nH]c1=O [ZIDOVUDINE]
CC50 (Jurkat [1]): > 500 µM
CC50 (MT4 [2]): 110 µM
CC50 (U-937 [5]): 110 µM
CC50 [6]: 45 µM
CC50 (CCRF-CEM [8]): 500 µM
IC50 (MT4 [9]): 0.005 µM
CC50 (H9 [11]): 200 µM
